Experimental data as given in the NIST ThermoML archive (doi:10.1021/je400184t).

Experiment: excess molar enthalpy (molar enthalpy of mixing); xn = mol fraction of the nth substance listed
Conditions: 298.15 K, 101 kPa, Liquid, Calvet calorimetry

NCCO [2-aminoethan-1-ol] + c1ccncc1
Conditions | excess molar enthalpy [kcal/mol]
x2 = 0.00998 | 0.00765
x2 = 0.0187 | 0.0143
x2 = 0.02728 | 0.021
x2 = 0.0357 | 0.0272
x2 = 0.04398 | 0.0335
x2 = 0.05212 | 0.0394
x2 = 0.06012 | 0.0452
x2 = 0.06798 | 0.0509
x2 = 0.07572 | 0.0562
x2 = 0.08333 | 0.0614
x2 = 0.09081 | 0.0667
x2 = 0.09818 | 0.0715
x2 = 0.1054 | 0.0762
x2 = 0.1125 | 0.0808
x2 = 0.1196 | 0.0851
x2 = 0.1265 | 0.0894
x2 = 0.1333 | 0.093
x2 = 0.14 | 0.09656
x2 = 0.1466 | 0.1001
x2 = 0.153 | 0.1035
x2 = 0.1594 | 0.1066
x2 = 0.1657 | 0.1097
x2 = 0.1719 | 0.113
x2 = 0.1782 | 0.115
x2 = 0.1845 | 0.118
x2 = 0.1907 | 0.1212
x2 = 0.197 | 0.124
x2 = 0.2032 | 0.1267
x2 = 0.2095 | 0.1293
x2 = 0.2157 | 0.1319
x2 = 0.222 | 0.1343
x2 = 0.2282 | 0.137
x2 = 0.2345 | 0.1393
x2 = 0.2407 | 0.1417
x2 = 0.247 | 0.1439
x2 = 0.2532 | 0.1463
x2 = 0.2595 | 0.1484
x2 = 0.2657 | 0.1508
x2 = 0.272 | 0.153
x2 = 0.2782 | 0.1551
x2 = 0.2845 | 0.157
x2 = 0.2907 | 0.1592
x2 = 0.297 | 0.1611
x2 = 0.3032 | 0.163
x2 = 0.3095 | 0.1649
x2 = 0.3157 | 0.1668
x2 = 0.322 | 0.1687
x2 = 0.3282 | 0.1704
x2 = 0.3345 | 0.1723
x2 = 0.3407 | 0.174
x2 = 0.347 | 0.1757
x2 = 0.3532 | 0.1773
x2 = 0.3595 | 0.179
x2 = 0.3621 | 0.1797
x2 = 0.3652 | 0.1804
x2 = 0.3684 | 0.1812
x2 = 0.3716 | 0.1821
x2 = 0.3748 | 0.1828
x2 = 0.3781 | 0.1836
x2 = 0.3815 | 0.1845
x2 = 0.385 | 0.1852
x2 = 0.3885 | 0.1859
x2 = 0.3921 | 0.1867
x2 = 0.3957 | 0.1869
x2 = 0.3994 | 0.1879
x2 = 0.4032 | 0.1888
x2 = 0.407 | 0.1898
x2 = 0.4109 | 0.1905
x2 = 0.4149 | 0.1914
x2 = 0.419 | 0.1924
x2 = 0.4232 | 0.1934
x2 = 0.4274 | 0.1943
x2 = 0.4317 | 0.195
x2 = 0.4361 | 0.196
x2 = 0.4406 | 0.1969
x2 = 0.4452 | 0.1977
x2 = 0.4499 | 0.1986
x2 = 0.4547 | 0.1993
x2 = 0.4596 | 0.2003
x2 = 0.4646 | 0.201
x2 = 0.4698 | 0.202
x2 = 0.475 | 0.2027
x2 = 0.4803 | 0.2034
x2 = 0.4858 | 0.2043
x2 = 0.4914 | 0.2051
x2 = 0.4971 | 0.2055
x2 = 0.503 | 0.2063
x2 = 0.509 | 0.207
x2 = 0.5151 | 0.2075
x2 = 0.5214 | 0.2079
x2 = 0.5219 | 0.2082
x2 = 0.5284 | 0.2087
x2 = 0.535 | 0.2091
x2 = 0.5418 | 0.2096
x2 = 0.5488 | 0.2098
x2 = 0.5559 | 0.2103
x2 = 0.5633 | 0.2103
x2 = 0.5708 | 0.2106
x2 = 0.5786 | 0.2106
x2 = 0.5865 | 0.2106
x2 = 0.5947 | 0.2106
x2 = 0.6031 | 0.2103
x2 = 0.6117 | 0.2101
x2 = 0.6206 | 0.2096
x2 = 0.6298 | 0.2089
x2 = 0.6392 | 0.2082
x2 = 0.649 | 0.2072
x2 = 0.659 | 0.206
x2 = 0.6693 | 0.2046
x2 = 0.68 | 0.2029
x2 = 0.691 | 0.201
x2 = 0.7024 | 0.1989
x2 = 0.7141 | 0.1965
x2 = 0.7263 | 0.1934
x2 = 0.7389 | 0.1902
x2 = 0.7519 | 0.1862
x2 = 0.7654 | 0.1819
x2 = 0.7793 | 0.1766
x2 = 0.7938 | 0.1709
x2 = 0.8089 | 0.1642
x2 = 0.8245 | 0.1568
x2 = 0.8408 | 0.1482
x2 = 0.8577 | 0.1377
x2 = 0.8753 | 0.1264
x2 = 0.8936 | 0.113
x2 = 0.9127 | 0.09728
x2 = 0.9327 | 0.0791
x2 = 0.9535 | 0.0574
x2 = 0.9753 | 0.0323
x2 = 0.9981 | 0.0012
